The source of these data is patent US20200197409A1, “HEPATITIS B VIRUS SURFACE ANTIGEN INHIBITOR” (FUJIAN COSUNTER PHARMACEUTICAL CO., LTD., priority 2017, published 2020).

Read-outs that look alike come from different tables or passages of the source.

Series [1] in a line: Microsomal metabolism stability, rat. The conditions noted are these: rat liver microsomes 0.5 mg/mL, 1 μM, NADPH, 37° C. In kind it is in vitro ADME. The method, then:
The microsomal metabolism stability of the test compound (Embodiment 6) in three species was determined. 1 μM test compound and microsomes (0.5 mg/mL) supplemented with NADPH regeneration system were incubated at 37° C. The positive controls were testosterone (3A4 substrate), propafenone (2D6 substrate) and diclofenac (2C9 substrate), respectively. The positive control and microsomes (0.5 mg/mL) supplemented with NADPH regeneration system were incubated at 37° C. Samples at different time points (0, 5, 10, 20, 30, and 60 minutes) were mixed directly with cold acetonitrile containing an internal standard to terminate the reaction. The compound and microsomes were incubated for 60 minutes without the NADPH regeneration system. One parallel was set at each time point (n=1). The samples were analyzed by LC/MS/MS. The concentration of the compound was indicated by the ratio of the peak area of the analyte to the peak area of the internal standard.
For orientation: Microsomes from liver hold many membrane-bound enzymes, among them those of drug oxidation.

Series [2] in a line: Single-dose pharmacokinetic study on rat. In kind it is in vivo, SD rats.
Series [3] is described as follows: Single dose neurotoxicity test on rats (functional observation combination test, FOB). In kind it is in vivo. The conditions noted are these: 24 hours after single intragastric dose of 1000 mg/kg and 300 mg/kg, male SD rats. The method, then: In this experiment, SD rats were intragastrically administrated with RG7834 and Embodiment 6 in a single dose, and the potential neurobehavioral toxicities to SD rats were evaluated by functional observation combination test (FOB). A total of 25 SD male rats were used in this experiment. At the start of the administration, the animals were about 7 to 8 weeks old, males weighed between 225.50 and 285.70 g, and […]. […] The animals in the control group were administered with the menstruum. All animals were administered at a volume of 10 mL/kg, and subjected to the FOB test.

The nature of series [4]: 14-day pre-toxicology tolerance test on rat. The conditions noted are these: once a day for 14 days, male rats. In kind it is in vivo. As to the method:
[table] A total of 21 animals in this experiment were randomly divided into 7 groups. The animals were orally administered with the test compounds once a day for 14 consecutive days, and the toxicity was evaluated. Animal necropsy and tissue would be taken from the fixative, repaired, dehydrated, embedded, sectioned, stained and microscopically examined. These tissues included the liver, heart and lung of all animals, and spleen, stomach, duodenum, jejunum, ileum, and kidney of partial animals.

For the next series, the system named is HBsAg. The conditions noted are these: read-out: HBsAg EC50; HepG2.2.15 cells, supernatant on the 8th day. The method, then: The HBV DNA content in HepG2.2.15 cells culture supernatant was determined by real-time quantitative qPCR assay (real time-qPCR), and the HBV surface antigen content was determined by enzyme linked immunosorbent assay (ELISA). The inhibitory effect of the compound on HBV was evaluated by the EC50 value of the compound.
2.1 Cell Line: HepG2.2.15 Cells
3.1 HepG2.2.15 cells (4×10^4 cells/well) were seeded into a 96-well plate and incubated overnight at 37° C. under 5% CO2.
3.2 On the 2nd day, the compound was diluted into 8 concentrations with 3-fold gradient. The compounds with different concentrations were added into the culture wells in duplicate wells. The final concentration of DMSO in the culture medium was 0.5%, 10 μM ETV was used as a 100%/inhibition control, and 0.5% DMSO was used as a 0% inhibition control.
3.3 On the 5th day, the culture medium was replaced with a fresh medium containing the compound.
3.4 On the 8th day, the culture medium in the culture well was collected, and a part of the sample was taken for ELISA to determine the content of hepatitis B virus S antigen, a part of the sample was taken to extract DNA with a high-throughput DNA purification kit (Qiagen-51162).
3.8 Determination of hepatitis B virus S antigen content by ELISA
50 μL of sample and standard sample were taken and added into a reaction plate respectively, followed by addition of 50 μL of enzyme conjugate into each well, the mixture was shaken and well-mixed, and placed in a bath at 37° C. for 60 minutes. The plate was then washed with washing solution 5 times, followed by addition of 50 μL of illuminating substrate into each well, the mixture was well-mixed and allowed to react at room temperature for 10 minutes in the dark. Chemiluminescence intensity was determined by a ELISA.
Calculation of the percentage of inhibition:% Inh.=(1−value of sample/value of DMSO control)×100
Calculation of EC50: The 50% inhibitory concentration (EC50) value of the compound on HBV was calculated by GraphPad Prism software.

In a further series the test system is HBV. Nature of the series: In vivo pharmacodynamic study of hydrodynamic injection mouse HBV model (HDI-HBV) via tail vein. More on the design: species or system Balb/c mice. The conditions noted are these: mouse plasma. As to the method:
Anti-hepatitis B virus activity of the compound of the embodiment in vivo was evaluated by HDI mice model.
Balb/c mice, 10% HP—F-CD as vehicle, test compound, RG7834, ETV (Entecavir), pAAV2-HBV 1.3mer plasmid (extracted with Qiagen EndoFree Plasmid Giga kit), main reagents including QIAamp96 DNA kit and FasStart Universal Probe Mast (ROX). The main instruments used in this experiment included centrifuge (Beckman Allegra X-15R), tissue grinder (QIAGEN-Tissue lyser II) and spectrophotometer (Thermo-NANODROP 1000).
b) On day 0, all mice were subjected to hydrodynamic injection with HBV plasmid DNA solution via tail vein. The plasmid DNA was pre-treated with sterile physiological saline before injection and stored at 4° C. until use. Plasmid DNA solution was injected via the tail vein at a dose of 8% of the body weight of the mouse within 5 seconds.
c) On the 1st day to the 7th day, the mice were administered with the compound or solvent by oral gavage for 7 days.
d) On the 1st day, 3rd day and 5th day, the blood was collected from the submandibular vein of the mice, and heparin sodium was used as an anticoagulant. The blood sample was centrifuged at 7,000×g, 4° C. to prepare the plasma for the determination of HBV DNA.
e) On the 7^h day, all mice were euthanized by CO2. The blood was collected from the heart to prepare plasma, and the liver tissue was collected. Two left hepatic lobe were isolated, the size of which was 70-100 mg, and were frozen by liquid nitrogen immediately after collection. One of the hepatic lobe was used for HBV DNA detection, and the other was used for backup.
The content of HBsAg in the serum of the mice was determined by ELISA (enzyme linked immunosorbent assay). The experimental procedure refers to the specification of HBsAg ELISA kit.
The inhibitory activity of the test compound on HBV replication on the mouse HDI model was determined by measuring the content of HBsAg in the plasma of the mice.

As a reminder, the half-life is the time in which the quantity being followed falls by half. A lower half-life goes with fast loss. Usually EC50 stands for the concentration giving half of the maximal effect. In the case of `COCCCOc1cc2c(cc1OC)-c1cc(=O)c(C(=O)O)cn1[C@H](C(C)(C)C)CO2` [Embodiment 6], the “remaining ratio at T=60 min” value in series [1] came to 113.0%. Moreover, the Apparent distribution volume in series [2] (IV: 1 mg/kg PO: 2 mg/kg) is recorded as 1.72 L/kg. Also, in series [2] (IV: 1 mg/kg PO: 2 mg/kg), the Bioavailability is 71.1%. For the same molecule, the Highest concentration in series [2] (IV: 1 mg/kg PO: 2 mg/kg) turned out to be 659 nM. In series [2] (male, SD, plasma, IV: 1 mg/kg PO: 2 mg/kg), the half-life is 1.98 h. For the same molecule, the clearance in series [2] (male, SD, plasma, IV: 1 mg/kg PO: 2 mg/kg, read-out: Clearance rate) worked out at 28.1 mL/min/kg. In addition, the AUC(0-t) in series [2] (male, SD, plasma, IV: 1 mg/kg, read-out: AUC0-last (Intravenous injection)) was determined as 1.36 µM·h; in series [2] (male, SD, plasma, PO: 2 mg/kg, read-out: AUC0-last (Oral)), 1.83 µM·h. In addition, the “magnification of the pupil associated with the test compound” value in series [3] is reported as “did not appear”. Moreover, the “histopathological changes associated with the test compound” value in series [4] (high dose group (1000 mg/kg)) was “little or mild decrease of white pulp lymphocytes in the spleen”; in series [4] (medium and low dose groups (300 and 100 mg/kg), heart, liver and lung examined) it was “no histopathological changes associated with the test compound were observed”. Also, in the series on HBsAg, the 50% effective concentration (EC50) worked out at 3.88 nM. Also, the “Log HBsAg (IU/mL) (Ave. value)” value is recorded as 3.86 IU/mL in the series on HBV (dosing time day 1, 30 mg/kg QD gavage); 4.09 IU/mL in the series on HBV (dosing time day 3, 30 mg/kg QD gavage); 3.27 IU/mL in the series on HBV (dosing time day 5, 30 mg/kg QD gavage); 1.07 IU/mL in the series on HBV (dosing time day 7, 30 mg/kg QD gavage).
